According to ChEMBL document CHEMBL1142397, “Antineoplastic agents. 536. New sources of naturally occurring cancer cell growth inhibitors from marine organisms, terrestrial plants, and microorganisms(1a,)” (J Nat Prod, 2008):
In brackets after ≈: the same amount, converted by molar mass. Starred links: 1 amine or outer side, 2 acyl side, 3 side chain; linkers in the order of their positions; H or OH if unused. Positions of bridges follow the written chain, without caps; N, C: chain ends. Non-standard residues stand in square brackets, D forms with d. Residues, ends and D or L forms follow the SMILES beside them. Chains are numbered I, II in the order given. Actinocin(1to9) = Cc1c2oc3c(C)ccc(C(=O)[*:2])c3nc-2c(C(=O)[*:1])c(N)c1=O; X1 = CCC(N[*:1])C(C)C(=O)O[C@H](C(=O)[*:2])[C@@H](C)CC; X2 = C[C@H](N[*:1])C(=O)C(C)(C)C(=O)[*:2]; NMeY = CN[C@@H](Cc1ccc(O)cc1)C(=O)O; NMeI = CC[C@H](C)[C@H](NC)C(=O)O; NMeV = CN[C@H](C(=O)O)C(C)C; Sar = CNCC(=O)O

How the values were obtained:
[1] = system: P388; test: Cytotoxicity against mouse P388 cells assessed as concentration required for 50% inhibition; assay type: functional
[2] = system: SF-295; test: Cytotoxicity against human SF295 cells assessed as concentration required for 50% inhibition; assay type: functional
[3] = system: BXPC-3; test: Cytotoxicity against human BXPC3 cells assessed as concentration required for 50% inhibition; assay type: functional
[4] = system: DU-145; test: Cytotoxicity against human DU145 cells assessed as concentration required for 50% inhibition; assay type: functional
[5] = system: KM-20L2; test: Cytotoxicity against human KM20L2 cells assessed as concentration required for 50% inhibition; assay type: functional
[6] = system: OVCAR-3; test: Cytotoxicity against human OVCAR-3 cells assessed as concentration required for 50% inhibition; assay type: functional
[7] = system: NCI-H460; test: Cytotoxicity against human NCIH460 cells assessed as concentration required for 50% inhibition; assay type: functional
[8] = system: HL-60; test: Cytotoxicity against human HL60 cells; assay type: functional, cell-based
[9] = system: A549; test: Cytotoxicity against human A549 cells; assay type: functional, cell-based
[10] = system: HeLa; test: Cytotoxicity against human HeLa cells; assay type: functional, cell-based
[11] = system: SF-268; test: Cytotoxicity against human SF268 cells assessed as concentration required for 50% inhibition; assay type: functional
[12] = system: MCF7; test: Cytotoxicity against human MCF7 cells assessed as concentration required for 50% inhibition; assay type: functional
[13] = system: A498; test: Cytotoxicity against human A498 cells assessed as concentration required for 50% inhibition; assay type: functional
[14] = system: SK-MEL-5; test: Cytotoxicity against human SK-MEL-5 cells assessed as concentration required for 50% inhibition; assay type: functional
[15] = system: Mycobacterium tuberculosis; test: Antibacterial activity against Mycobacterium tuberculosis; assay type: functional
[16] = system: Vero; test: Cytotoxicity against african green monkey Vero cells; assay type: functional, cell-based; details: Chlorocebus sabaeus

SMILES	Activity [1] [µg/mL]	Activity [2] [µg/mL]	Activity [3] [µg/mL]	Activity [4] [µg/mL]	Activity [5] [µg/mL]	Activity [6] [µg/mL]	Activity [7] [µg/mL]	further results
COc1c(C)c2c(c(O)c1C/C=C(C)/C=C/C(=O)O)C(=O)OC2	0.11							
COc1cc([C@@H]2c3cc4c(c(O[C@@H]5O[C@H](CO)[C@@H](O)[C@H](O)[C@H]5O)c3C[C@H]3COC(=O)[C@@H]32)OCO4)cc(OC)c1OC	0.21	0.27	>1	>1	>1	0.85	0.28	
CS[C@@H]1[C@H]2C(=O)N(C)[C@@H](C(C)C)C(=O)OC[C@@H](NC(=O)c3cnc4ccccc4n3)C(=O)N[C@@H](C)C(=O)N(C)[C@@H](C[S+]1[O-])C(=O)N(C)[C@@H](C(C)C)C(=O)OC[C@@H](NC(=O)c1cnc3ccccc3n1)C(=O)N[C@@H](C)C(=O)N2C (stereo partly specified)								IC50 [8]: 0.2 µg/mL (≈ 0.179 µM); IC50 [9]: 0.2 µg/mL (≈ 0.179 µM); IC50 [10]: 0.2 µg/mL (≈ 0.179 µM)
CC[C@H](C)[C@@H]1NC(=O)[C@H](CC(C)C)NC(=O)[C@@H]2CCCN2C(=O)[C@H](C(C)C)NC(=O)[C@H](Cc2ccc(O)cc2)NC(=O)[C@@H]2CCCN2C(=O)[C@@H]2CCCN2C(=O)[C@H](CC(C)C)NC1=O [AXINASTATIN 5] (cyclo(ILPPYVPL))	1.9		0.68	0.87	0.28		0.82	Activity [11]: 1.8 µg/mL; Activity [12]: 1.4 µg/mL
CCCCCCCCCCCCCC(=O)O[C@H]1CC[C@H](NC(=O)[C@H](OC)[C@H](O)[C@@H](O)[C@H](O)/C=C/C(C)C)C(=O)NC1 [BENGAMIDE A]	0.12	0.001	0.027	0.0056	0.0049	0.01	0.00054	
CCCCCCCCCCCCCC(=O)O[C@@H](c1cnco1)c1nc([C@@H](O)C[C@@H](O)[C@@H](O)[C@@H](C)O)co1 [BENGAZOLE A]	0.14	0.19	0.14	0.15	0.0031	0.28	0.21	
CC(C)CCCCCCCCCCCC(=O)O[C@@H](c1cnco1)c1nc([C@@H](O)C[C@@H](O)[C@@H](O)[C@@H](C)O)co1 [BENGAZOLE B]	0.053	0.19	0.18	0.15	0.33	0.37	0.2	
CCCCCCCCCCCCCCC(=O)O[C@@H](c1cnco1)c1nc([C@@H](O)C[C@@H](O)[C@@H](O)[C@@H](C)O)co1 [BENGAZOLE E]	0.074	0.13	0.081	0.11	0.18	0.16	0.14	
COc1cc([C@@H]2c3cc4c(c(O)c3C[C@H]3COC(=O)[C@@H]32)OCO4)cc(OC)c1OC [BETA-PELTATIN A]	0.0031	0.0004	0.0012	0.0021	0.0076	0.00055	0.00077	
C[C@H]1CCC/C=C/[C@@H]2C[C@H](O)C[C@H]2[C@H](O)/C=C/C(=O)O1 [BREFELDIN A]	0.23	0.38	0.07	0.13	0.022	0.041	0.28	Activity [11]: 0.21 µg/mL; Activity [12]: 0.047 µg/mL
CC[C@H]1CN2CCc3cc(OC)c(OC)cc3[C@@H]2C[C@@H]1C[C@H]1NCCc2cc(O)c(OC)cc21 [CEPHAELINE]	0.0027	0.018	0.024	0.0098	0.022	0.032	0.022	
Cc1c2oc3c(C)ccc(C(=O)N[C@@H]4C(=O)N[C@H](C(C)C)C(=O)N5CCC[C@H]5C(=O)N(C)CC(=O)N(C)[C@@H](C(C)C)C(=O)O[C@@H]4C)c3nc-2c(C(=O)N[C@@H]2C(=O)N[C@H](C(C)C)C(=O)N3CCC[C@H]3C(=O)N(C)CC(=O)N(C)[C@@H](C(C)C)C(=O)O[C@@H]2C)c(N)c1=O [DACTINOMYCIN] (I: T[dV]P[Sar][NMeV] / II: T[dV]P[Sar][NMeV]; ester I:1-I:C, II:1-II:C; linker I:N-II:N via Actinocin(1to9))	<0.001							
O=c1c(-c2ccc(O)cc2)coc2cc(O)ccc12 [DAIDZEIN]			6.2	7.3	8.8		>10	Activity [11]: 4.4 µg/mL; Activity [12]: 5.1 µg/mL
NC1=N/C(=C2/CCNC(=O)c3[nH]ccc32)C(=O)N1 [DEBROMOHYMENIALDISINE]	5							
COc1cc([C@@H]2c3cc4c(cc3C[C@H]3COC(=O)[C@@H]32)OCO4)cc(OC)c1OC [DESOXYPODOPHYLLOTOXIN]	0.029	0.00056	0.00044	0.0017	0.0014	0.0027	0.0018	
CS[C@H]1SC[C@H]2C(=O)N(C)[C@@H](C(C)C)C(=O)OC[C@@H](NC(=O)c3cnc4ccccc4n3)C(=O)N[C@@H](C)C(=O)N(C)[C@@H]1C(=O)N(C)[C@@H](C(C)C)C(=O)OC[C@@H](NC(=O)c1cnc3ccccc3n1)C(=O)N[C@@H](C)C(=O)N2C [ECHINOMYCIN]	0.00147							
O=c1c(-c2ccc(O)cc2)coc2cc(O)cc(O)c12 [GENISTEIN]			2.5	1.9	3.7		1.5	Activity [11]: 1.7 µg/mL; Activity [12]: 2.5 µg/mL
NC1=NC(=O)/C(=C2\CCNC(=O)c3[nH]c(Br)cc32)N1 [HYMENIALDISINE]	2.4							
COc1cc([C@H]2c3cc4c(cc3C[C@H]3COC(=O)[C@H]32)OCO4)cc(OC)c1OC [ISOPICRODEOXYPODOPHYLLOTOXIN]	<0.01							
C/C1=C\[C@H](C)C[C@H](C)OC(=O)C[C@H](c2ccc(O)cc2)NC(=O)[C@@H](Cc2c(Br)[nH]c3ccccc23)N(C)C(=O)[C@H](C)NC(=O)[C@@H](C)C1 [JASPAMIDE]	0.008							
CCC1NC(=O)[C@H](C)NC(=O)C(C)(C)C(=O)[C@H](C)NC(=O)[C@H](Cc2ccc(OC)cc2)N(C)C(=O)[C@H](C(C)C)N(C)C(=O)CNC(=O)[C@H]([C@@H](C)CC)N(C)C(=O)CNC(=O)[C@H]([C@@H](C)CC)OC(=O)C1C (stereo partly specified) [MAJUSCULAMIDE C] (cyclo(A[X1]G[NMeI]G[NMeV][NMeY](Me)[X2]))		0.13			0.0013	0.51	0.0032	Activity [13]: 0.058 µg/mL; Activity [14]: 0.0068 µg/mL
Cl.O[C@]12C=C(c3nccc4c3[nH]c3ccccc34)[C@@H]3CCN(CCCC/C=C\CC1)C[C@@]31C[C@@H]3/C=C\CCCCN3[C@H]12 [MANZAMINE A HCL]	0.0067		0.35	0.6	0.37		0.36	Activity [11]: 0.42 µg/mL; Activity [12]: 0.41 µg/mL; Activity [15]: 99%; MIC ([15]; Mycobacterium tuberculosis): 6.25 µg/mL; IC50 [16]: 1.7 µg/mL
C\C(=C/C=C/C(C)=C1/C(=O)C[C@H]2[C@@]3(C)CCC(=O)C(C)(C)[C@@H]3CC[C@]12C)c1ccc(C)c(=O)o1 [STELLETIN A]	0.012		0.078					Activity [12]: 0.752 µg/mL
CC(/C=C/C=C(\C)c1ccc(C)c(=O)o1)=C1/C(=O)C[C@H]2[C@@]3(C)CCC(=O)C(C)(C)[C@@H]3CC[C@]12C [STELLETTIN B]	0.037							
N#Cc1cn([C@@H]2O[C@H](CO)[C@@H](O)[C@H]2O)c2ncnc(N)c12 [TOYOCAMYCIN]	0.0023							
C[C@H]1[C@H](C)CC[C@]2(C(=O)O)CC[C@]3(C)C(=CC[C@@H]4[C@@]5(C)CC[C@H](O)C(C)(C)[C@@H]5CC[C@]43C)[C@H]12 [URSOLIC ACID]	>1							
